According to patent US20110217300A1, “Quinazolinone Compounds and Methods of Use Thereof” (priority 2007, published 2011):
Like-named read-outs stand apart in the source and are kept apart here.

Tests used:
HsEg5 = molecular target: T1, HsEg5 (Homo sapiens, UniProt P52732); test: Fluorescence detection of HsEg5 ATPase activity (ADP Quest, automated); type: biochemical
T1 sequence (P52732 18-359 limits assumed): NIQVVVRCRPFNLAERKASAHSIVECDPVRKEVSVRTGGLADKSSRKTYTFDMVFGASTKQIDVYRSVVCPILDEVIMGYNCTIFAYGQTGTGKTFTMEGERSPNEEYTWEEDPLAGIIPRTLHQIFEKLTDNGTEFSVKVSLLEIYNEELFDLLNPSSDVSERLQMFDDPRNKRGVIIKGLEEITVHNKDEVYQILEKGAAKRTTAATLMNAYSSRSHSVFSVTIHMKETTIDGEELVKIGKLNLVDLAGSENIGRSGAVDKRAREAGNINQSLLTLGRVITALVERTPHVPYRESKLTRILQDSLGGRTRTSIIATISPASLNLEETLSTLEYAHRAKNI
Description: Purified HsEg5 motor fragment was activated by mixture with preformed MT polymer (Cytoskeleton, Denver, Colo.) at room temperature for 20 minutes. MT activated ATPase activity was measured using ADP Quest (DiscoverX, Fremont, Calif.) in which a coupled-enzyme assay can translate accumulation of ADP into detectable resorufin signal (FIG. 1A). Fluorescence was measured at λEx=535 nm and λEm=590 nm on a Wallac Victor 2 plate reader (Perkin-Elmer Life Sciences, Boston, Mass.). Reagent A and B from ADP Quest kit were aliquoted and frozen in −20° C. before use. A standard curve was determined using the provided ADP reagent in the reaction buffer that consisted of 50 mM Pipes (pH7.0), 5.0 mM MgCl2, 20 μM paclitaxel and […]. The same buffer was used for Km determination with HsEg5 concentration of 10 nM.
For inhibitor screening, 4 μL of compounds were incubated with 10 μL of MT-activated HsEg5 such that the final concentrations for compound range from 100 μM to 5 nM (1 to 3 serial dilutions, final concentration) and final concentration for HsEg5 is 10 nM. The mixture was incubated at room temperature for 10 minutes with mild shaking. The screening assay contained 0.3% DMSO in all reaction wells. We used wells containing only DMSO as negative controls and wells without ATP as background. Addition of 6 μL ATP (final concentration of 20 μM) initiated the ATP hydrolysis reaction. The 20 μL-reaction was allowed to proceed at room temperature for 10 minutes before addition of 10 μL of reagent A and 20 μL of reagent B. After 20-minute development at room temperature, the fluorescence was measured and data analysis was performed using GraphPad Prism version 3.0 (GraphPad Software, San Diego, Calif.)
For the purpose of high-throughput screening, we automated the fluorescence assay using a Sciclone ALH3000 (Caliper Life Sciences, Hopkinton, Mass.) and Multidrop 384 (Thermo Electron Corp, Waltham, Mass.). First, compound dilution plates for screening (at 10 μM or 1 μM) and ICso determination (10 data points from 100 μM to 5 nM) were made in Corning polypropylene V-bottom 96-well plates. In both cases, the 1st and 7th column contained background (No ATP addition) and negative control (DMSO only). For screening compounds at 10 μM or 1 μM, […] of each compound at 50 μM or 5 μM were used in a 20 μL assay reaction. For IC50 determination, the mother compound plate contained 24 μL of tested compound at stock concentration of 30 mM. 6 μL of each test compound in 30 mM was added to each well in the column 2 and followed by 1:3 serial dilutions in DMSO with the Sciclone ALH3000. 234 μL of assay buffer was then added using a Multidrop 384. Then 4 μL of diluted compounds was used in 20 μL-reaction. The final concentration was a 1:300 dilution of the original stock. Second, a reagent source plate was prepared with three rows designated to MT-activated HsEg5, Reagent A and Reagent B respectively. MTs were diluted with assay buffer and polymerized at room temperature for 10 minutes. Just before use, HsEg5 protein was thawed on ice and activated by addition of MT polymers at room temperature for 20 minutes. HsEg5/MT was then added to Row A of the reagent source plate. The final assay concentration was 10 nM HsEg5 and 500 nM MTs. Reagent A and B were stored at −20° C. and thawed at room temperature followed by transferring to rows B & C of the reagent source plate. Third, ATP substrate plate was prepared by transferring 80 μM ATP solution to each well of a V-shape 96-well plate except the wells in the first row where assay buffer was added instead to have no-ATP blanks. The final concentration for ATP in the assay was 20 μM.
The assay was programmed on Sciclone ALH3000 with the following procedures: 1) Addition of 4 μL compounds to the assay plate, followed by addition of 10 μL of MT-activated HsEg5. […]

NCI-H460 = test: MTS cell viability assay; type: cell-based, human; conditions: Homo sapiens, NCI-H460, 72 h
Description: Cell viability was determined by measuring the activity of dehydrogenase enzymes in metabolically active cells using a tetrazolium compound, MTS. The assay was performed as described in Promega Technical Bulletin No. 169 (CellTiter 96 Aqueous Non-Radioactive Cell Proliferation Assay). Two human cancer cell lines were assayed (see, Table 1). Cells were maintained at 37° C. and 5% CO2 in DMEM media (4.5 g/L glucose) supplemented with 10% heat-inactivated FBS, 10 mM L-glutamine, and 10 mM Hepes pH 7.5. Briefly, cells were seeded in 96-well plates as set forth in Table 1 and incubated for 16-24 hours. Candidate compounds were serially diluted in DMSO, further diluted in cell culture media, and then added to cells (final DMSO concentration of 0.33%). Cells were incubated in the presence of candidate compound for 72 hours. MTS stock solution (MTS 2 gm/L, PMS […] in PBS) was added to the cells (final concentration MTS […] and PMS 7.67 mg/L) and incubated for 4 hours. SDS was added to a final concentration of 1.4% and absorbance at 490 nm was measured within two hours using a plate reader. […] GI50 values were given in Table 2 for the compounds listed. The Compound Numbers in Table 2 correspond to the numbers listed parenthetically in the Example titles. Where multiple measurements were made by different technicians, both values are given.
Cell viability was determined for N-(3-amino-propyl)-3-chloro-N—[(R)-1-(7-chloro-4-oxo-3-phenylamino-3,4-dihydro-quinazolin-2-yl)-but-3-ynyl]-2-fluoro-benzamide (compound I of Table 2). The cell viability assay of Example 105 was used. GI50 was determined using a variety of cell lines. Cells were plated at 100-5000 cells per well. At least 2 replicates were performed. Where multiple measurements were made by different technicians, both values are given.

A549 = test: MTS cell viability assay; type: cell-based; conditions: Homo sapiens, A549 non small cell lung, 72 hours, read-out: MTS NCI A549 GI50
Description: Two human cancer cell lines were assayed (see, Table 1). Cells were maintained at 37° C. and 5% CO2 in DMEM media (4.5 g/L glucose) supplemented with 10% heat-inactivated FBS, 10 mM L-glutamine, and 10 mM Hepes pH 7.5. Briefly, cells were seeded in 96-well plates as set forth in Table 1 and incubated for 16-24 hours. Candidate compounds were serially diluted in DMSO, further diluted in cell culture media, and then added to cells (final DMSO concentration of 0.33%). Cells were incubated in the presence of candidate compound for 72 hours. […] The Compound Numbers in Table 2 correspond to the numbers listed parenthetically in the Example titles.

[1] = read-out: MTS NCI H460 GI50, NCI-H460 non small cell lung, 72 hours

## CCC(c1nc2cc(Cl)ccc2c(=O)n1Nc1ccccc1)N(CCCN)C(=O)c1ccc(Br)cc1 (stereo not shown) [Compound 2, N-(3-Aminopropyl)-N-[1-(3-anilino-7-chloro-4-oxo-3,4-dihydroquinazolin-2-yl)propyl]-4-bromobenzamide]
HsEg5
  IC50: 0.645 µM
NCI-H460; read-out: MTS NCI H460 GI50
  GI50: 1.75 µM
A549
  GI50: 2.37 µM

## CCC(c1nc2cc(Cl)ccc2c(=O)n1Nc1ccccc1)N(CCCN)C(=O)c1ccc(C)cc1 (stereo not shown) [Compound 3, N-(3-Aminopropyl)-N-[1-(3-anilino-7-chloro-4-oxo-3,4-dihydroquinazolin-2-yl)propyl]-4-methylbenzamide]
HsEg5
  IC50: 0.702 µM
NCI-H460; [1]
  GI50: 1.19 µM
A549; A549, 72 h
  GI50: 2.3 µM

## CCC(c1nc2cc(Cl)ccc2c(=O)n1Nc1ccccc1)N(CCCN)C(=O)c1ccc(Cl)cc1 (stereo not shown) [Compound 4, N-(3-Aminopropyl)-N-[1-(3-anilino-7-chloro-4-oxo-3,4-dihydroquinazolin-2-yl)propyl]-4-chlorobenzamide]
HsEg5
  IC50: 0.72 µM
NCI-H460; read-out: MTS NCI H460 GI50
  GI50: 1.14 µM
A549
  GI50: 2.4 µM

## CCC(c1nc2cc(Cl)ccc2c(=O)n1Nc1ccccc1)N(CCCN)C(=O)c1ccc([N+](=O)[O-])cc1 (stereo not shown) [Compound 5, N-(3-Aminopropyl)-N-[1-(3-anilino-7-chloro-4-oxo-3,4-dihydroquinazolin-2-yl)propyl]-4-nitrobenzamide]
HsEg5
  IC50: 1.05 µM
NCI-H460; read-out: MTS NCI H460 GI50
  GI50: 2.39 µM
A549
  GI50: 4.4 µM

## C#CC[C@H](c1nc2cc(Cl)ccc2c(=O)n1Nc1ccccc1)N(CCCN)S(=O)(=O)c1ccc(C)cc1 [Compound 30, N-(3-amino-propyl)-N—[(R)-1-(7-chloro-4-oxo-3-phenylamino-3,4-dihydro-quinazolin-2-yl)-but-3-ynyl]-4-methyl-benzenesulfonamide]
NCI-H460; [1]
  GI50: 12 µM
A549; A549, 72 h
  GI50: 7.1 µM

## CC[C@H](c1nc2cc(Cl)ccc2c(=O)n1Nc1ccccc1)N(CCCN)S(=O)(=O)c1cccc(F)c1 [Compound 31, N-(3-Aminopropyl)-N-[(1R)-1-(3-anilino-7-chloro-4-oxo-3,4-dihydroquinazolin-2-yl)propyl]-3-fluorobenzenesulfonamide]
HsEg5
  IC50: 1.43 µM
A549
  GI50: 10.8 µM

## CC[C@H](c1nc2cc(Cl)ccc2c(=O)n1Nc1ccccc1)N(CCCN)S(=O)(=O)c1c(C)nn(C)c1C [Compound 33, N-(3-Aminopropyl)-N-[(1R)-1-(3-anilino-7-chloro-4-oxo-3,4-dihydroquinazolin-2-yl)propyl]-1,3,5-trimethyl-1H-pyrazole-4-sulfonamide]
HsEg5
  IC50: 4.22 µM
NCI-H460; read-out: MTS NCI H460 GI50
  GI50: 10.4 µM

## CSCCC(c1nc2cc(Cl)ccc2c(=O)n1Nc1ccccc1)N(CCCN)C(=O)c1cccc(Cl)c1F (stereo not shown) [Compound 38, N-(3-Aminopropyl)-N-[1-(3-anilino-7-chloro-4-oxo-3,4-dihydroquinazolin-2-yl)-3-(methylthio)propyl]-3-chloro-2-fluorobenzamide]
HsEg5
  IC50: 4.59 µM
NCI-H460; [1]
  GI50: 3.59 µM

## Cc1ccc(C(=O)N(CCCN)C(c2nc3cc(Cl)ccc3c(=O)n2Nc2ccccc2)C(C)C)cc1F (stereo not shown) [Compound 46, N-(3-Aminopropyl)-N-[1-(3-anilino-7-chloro-4-oxo-3,4-dihydroquinazolin-2-yl)-2-methylpropyl]-3-fluoro-4-methylbenzamide]
HsEg5
  IC50: 0.246 µM
NCI-H460; [1]
  GI50: 0.678 µM

## CCCCC(c1nc2cc(Cl)ccc2c(=O)n1Nc1ccccc1)N(CCCN)C(=O)c1ccc(C)cc1 (stereo not shown) [Compound 59, N-(3-Aminopropyl)-N-[1-(3-anilino-7-chloro-4-oxo-3,4-dihydroquinazolin-2-yl)pentyl]-4-methylbenzamide]
HsEg5
  IC50: 52.3 µM
NCI-H460; read-out: MTS NCI H460 GI50
  GI50: 4.24 µM

## CCC(c1nc2cc(Cl)ccc2c(=O)n1Nc1ccccc1)N(CCN)C(=O)c1ccc(Cl)cc1 (stereo not shown) [Compound 60, N-(2-Aminoethyl)-N-[1-(3-anilino-7-chloro-4-oxo-3,4-dihydroquinazolin-2-yl)propyl]-4-chlorobenzamide]
HsEg5
  IC50: 3.99 µM
NCI-H460; read-out: MTS NCI H460 GI50
  GI50: 10 µM

## C#CC[C@H](c1nc2cc(Cl)ccc2c(=O)n1Nc1ccccc1)N(CCCN)Cc1ccc(C)cc1 [Compound 66, 2-{(R)-1-[(3-Amino-propyl)-(4-methyl-benzyl)-amino]-but-3-ynyl}-7-chloro-3-phenylamino-3H-quinazolin-4-one]
NCI-H460; [1]
  GI50: 3.2 µM
A549; A549, 72 h
  GI50: 2.35 µM

## CC[C@H](c1nc2cc(Cl)ccc2c(=O)n1Nc1ccccc1)N(CCCN)Cc1ccc(C)cc1 [Compound 68, 2-{(R)-1-[(3-Amino-propyl)-(4-methyl-benzyl)-amino]-propyl}-7-chloro-3-phenylamino-3H-quinazolin-4-one]
NCI-H460; [1]
  GI50: 2.59 µM
A549; A549, 72 h
  GI50: 3.86 µM

## CC[C@H](c1nc2cc(Cl)ccc2c(=O)n1Nc1ccccc1)N(CCCN)Cc1ccc(F)c(C)c1 [Compound 69, 2-{(1R)-1-[(3-Aminopropyl)(4-fluoro-3-methylbenzyl)amino]propyl}-3-anilino-7-chloro-3H-quinazolin-4-one]
NCI-H460; [1]
  GI50: 3.77 µM
A549; A549, 72 h
  GI50: 3.9 µM

## CC[C@H](c1nc2cc(Cl)ccc2c(=O)n1Nc1ccccc1)N(CCCN)Cc1ccccc1 [Compound 70, 2-{(1R)-1-[(3-aminopropyl)(benzyl)amino]propyl}-3-anilino-7-chloro-3H-quinazolin-4-one]
NCI-H460; [1]
  GI50: 4.23 µM
A549; A549, 72 h
  GI50: 6.91 µM
